Reference: ChEMBL document CHEMBL1275247, “Pharmacokinetics and safety of CXA-101, a new antipseudomonal cephalosporin, in healthy adult male and female subjects receiving single- and multiple-dose intravenous infusions” (Antimicrob Agents Chemother, 2010)

What was measured:
[1] = Drug recovery in urine of healthy human at 250 mg, iv administered as single dose as 1 hr iv infusion after 24 hrs; type: ADME, organism-based; settings: read-out: Activity
[2] = Drug recovery in urine of healthy human at 1500 mg, iv administered as 1 hr infusion every 12 hrs for 10 days measured on day 1; type: ADME, organism-based; settings: read-out: Activity
[3] = Tmax in healthy human at 1000 mg, iv administered as 1 hr infusion every 8 hrs for 10 days measured on day 10; type: ADME, organism-based; settings: in vivo
[4] = Half-life in plasma of healthy human 1500 mg, iv administered as 1 hr infusion every 12 hrs for 10 days measured on day 1; type: ADME, organism-based
[5] = Volume of distribution at steady state in healthy human at 2000 mg, iv administered as single dose as 1 hr iv infusion; type: ADME, organism-based; settings: in vivo
[6] = Mean residence time in healthy human at 1000 mg, iv administered as 1 hr infusion every 8 hrs for 10 days measured on day 10; type: ADME, organism-based; settings: in vivo
[7] = Cmax in healthy human at 1500 mg, iv administered as 1 hr infusion every 12 hrs for 10 days measured on day 1; type: ADME, organism-based; design: dose 1500 mg, route intravenous; settings: in vivo
[8] = Renal clearance in healthy human at 250 mg, iv administered as single dose as 1 hr iv infusion; type: ADME, organism-based, Kidney; settings: in vivo, read-out: CL_renal
[9] = Drug recovery in urine of healthy human at 500 mg, iv administered as single dose as 1 hr iv infusion after 24 hrs; type: ADME, organism-based; settings: read-out: Activity
[10] = Clearance in healthy human at 1000 mg, iv administered as single dose as 1 hr iv infusion; type: ADME, organism-based; settings: in vivo
[11] = Tmax in healthy human at 1500 mg, iv administered as 1 hr infusion every 12 hrs for 10 days measured on day 10; type: ADME, organism-based; settings: in vivo
Homo sapiens [12] = assay: Toxicity in healthy human assessed as occurrence of headache at 1500 mg, iv administered as single dose as 1 hr iv infusion; type: organism-based; settings: in vivo
[13] = Drug recovery in urine of healthy human at 1500 mg, iv administered as single dose as 1 hr iv infusion after 24 hrs; type: ADME, organism-based; settings: read-out: Activity
[14] = Drug recovery in urine of healthy human at 500 mg, iv administered as 1 hr infusion every 8 hrs for 10 days measured on day 10; type: ADME, organism-based; settings: read-out: Activity
[15] = Drug recovery in urine of healthy human at 1500 mg, iv administered as 1 hr infusion every 12 hrs for 10 days measured on day 10; type: ADME, organism-based; settings: read-out: Activity
[16] = Mean residence time in healthy human at 1500 mg, iv administered as 1 hr infusion every 12 hrs for 10 days measured on day 1; type: ADME, organism-based; settings: in vivo
[17] = AUC (0 to infinity) in healthy human at 1500 mg, iv administered as 1 hr infusion every 12 hrs for 10 days measured on day 10; type: ADME, organism-based; design: dose 1500 mg, route intravenous, time infinity; settings: plasma
[18] = Drug recovery in urine of healthy human at 1000 mg, iv administered as single dose as 1 hr iv infusion after 24 hrs; type: ADME, organism-based; settings: read-out: Activity
[19] = AUC (0 to infinity) in healthy human at 500 mg, iv administered as single dose as 1 hr iv infusion; type: ADME, organism-based; design: dose 500 mg, time infinity, route intravenous; settings: plasma
[20] = Half-life in plasma of healthy human 500 mg, iv administered as 1 hr infusion every 8 hrs for 10 days measured on day 1; type: ADME, organism-based
[21] = AUC (0 to infinity) in healthy human at 1500 mg, iv administered as 1 hr infusion every 12 hrs for 10 days measured on day 1; type: ADME, organism-based; design: dose 1500 mg, route intravenous, time infinity; settings: plasma
[22] = Half-life in plasma of healthy human 1000 mg, iv administered as 1 hr infusion every 8 hrs for 10 days measured on day 10; type: ADME, organism-based
[23] = Volume of distribution at steady state in healthy human at 1500 mg, iv administered as single dose as 1 hr iv infusion; type: ADME, organism-based; settings: in vivo
[24] = Volume of distribution at steady state in healthy human at 500 mg, iv administered as single dose as 1 hr iv infusion; type: ADME, organism-based; settings: in vivo
[25] = Cmax in healthy human at 1500 mg, iv administered as single dose as 1 hr iv infusion; type: ADME, organism-based; design: dose 1500 mg, route intravenous; settings: in vivo
[26] = Drug recovery in urine of healthy human at 1000 mg, iv administered as 1 hr infusion every 8 hrs for 10 days measured on day 1; type: ADME, organism-based; settings: read-out: Activity
[27] = Volume of distribution at steady state in healthy human at 1000 mg, iv administered as 1 hr infusion every 8 hrs for 10 days measured on day 10; type: ADME, organism-based; settings: in vivo
[28] = Mean residence time in healthy human at 500 mg, iv administered as single dose as 1 hr iv infusion; type: ADME, organism-based; settings: in vivo
[29] = Cmax in healthy human at 1500 mg, iv administered as 1 hr infusion every 12 hrs for 10 days measured on day 10; type: ADME, organism-based; design: dose 1500 mg, route intravenous; settings: in vivo
[30] = Tmax in healthy human at 1500 mg, iv administered as 1 hr infusion every 12 hrs for 10 days measured on day 1; type: ADME, organism-based; settings: in vivo
[31] = Mean residence time in healthy human at 1500 mg, iv administered as 1 hr infusion every 12 hrs for 10 days measured on day 10; type: ADME, organism-based; settings: in vivo
Homo sapiens [32] = assay: Toxicity in healthy human assessed as occurrence of flushing at 1000 mg, iv administered as 1 hr infusion every 8 hrs for 10 days; type: organism-based; settings: in vivo
[33] = Half-life in plasma of healthy human 250 mg administered as single ascending dose, iv for 1 hr infusion; type: ADME, organism-based
Homo sapiens [34] = assay: Toxicity in healthy human assessed as occurrence of nausea at 1000 mg, iv administered as single dose as 1 hr iv infusion; type: organism-based; settings: in vivo
[35] = Tmax in healthy human at 1000 mg, iv administered as single dose as 1 hr iv infusion; type: ADME, organism-based; settings: in vivo
[36] = Cmax in healthy human at 500 mg, iv administered as 1 hr infusion every 8 hrs for 10 days measured on day 10; type: ADME, organism-based; design: dose 500 mg, route intravenous; settings: in vivo
[37] = Half-life in plasma of healthy human 1000 mg, iv administered as 1 hr infusion every 8 hrs for 10 days measured on day 1; type: ADME, organism-based
[38] = Renal clearance in healthy human at 1500 mg, iv administered as single dose as 1 hr iv infusion; type: ADME, organism-based, Kidney; settings: in vivo, read-out: CL_renal
[39] = Clearance in healthy human at 1000 mg, iv administered as 1 hr infusion every 8 hrs for 10 days measured on day 10; type: ADME, organism-based; settings: in vivo
[40] = Clearance in healthy human at 500 mg, iv administered as 1 hr infusion every 8 hrs for 10 days measured on day 1; type: ADME, organism-based; settings: in vivo
[41] = Drug recovery in urine of healthy human at 1000 mg, iv administered as 1 hr infusion every 8 hrs for 10 days measured on day 10; type: ADME, organism-based; settings: read-out: Activity
[42] = Clearance in healthy human at 2000 mg, iv administered as single dose as 1 hr iv infusion; type: ADME, organism-based; settings: in vivo
[43] = Tmax in healthy human at 500 mg, iv administered as 1 hr infusion every 8 hrs for 10 days measured on day 10; type: ADME, organism-based; settings: in vivo
[44] = Volume of distribution at steady state in healthy human at 500 mg, iv administered as 1 hr infusion every 8 hrs for 10 days measured on day 10; type: ADME, organism-based; settings: in vivo
Homo sapiens [45] = assay: Toxicity in healthy human assessed as occurrence of vulvo-vaginal pruritus at 1500 mg, iv administered as single dose as 1 hr iv infusion; type: organism-based; settings: in vivo

In the case of `Cn1c(N)c(NC(=O)NCCN)c[n+]1CC1=C(C(=O)O)N2C(=O)[C@@H](NC(=O)/C(=N\OC(C)(C)C(=O)[O-])c3nsc(N)n3)[C@H]2SC1` [CEFTOLOZANE], the dose excreted at 24 h [1] is reported as 97.1%, the dose excreted at 1 day [2] is reported as 104% and the Tmax [3] is reported as 1.05 h. For the same molecule, the half-life [4] was 2.72 h, the Vd [5] was 14.8 L and the MRT [6] was 2.45 h. For the same molecule, the Cmax [7] was 85.4 µg/mL, the CL renal at 1 h [8] was 101 mL/min and the dose excreted at 24 h [9] was 91.2%. For the same molecule, the clearance [10] was 110 mL/min, the Tmax [11] was 1 h and the Activity (Homo sapiens [12]) was “Non-toxic”. For the same molecule, the dose excreted at 24 h [13] was 93.4%, the dose excreted at 10 day [14] was 84.6% and the dose excreted at 10 day [15] was 105%. For the same molecule, the MRT [16] was 2.64 h, the AUC(0-inf) [17] was 207 µg·h/mL and the dose excreted at 24 h [18] was 85.2%. It also gave an AUC(0-inf) [19] of 84.1 µg·h/mL, a half-life [20] of 2.21 h and an AUC(0-inf) [21] of 219 µg·h/mL. It also gave a half-life [22] of 2.69 h, a Vd [23] of 17.6 L and a Vd [24] of 14.8 L. The Cmax [25] was 87.4 µg/mL, the dose excreted at 1 day [26] was 99.4% and the Vd [27] was 17.1 L. It also gave an MRT [28] of 2.5 h, a Cmax [29] of 82.6 µg/mL and a Tmax [30] of 1.03 h. The MRT [31] was 2.5 h, the Activity (Homo sapiens [32]) was “Non-toxic” and the half-life [33] was 1.86 h. The Activity (Homo sapiens [34]) was “Non-toxic”, the Tmax [35] was 1.05 h and the Cmax [36] was 33.3 µg/mL. The half-life [37] was 2.38 h, the CL renal at 1 h [38] was 96.2 mL/min and the clearance [39] was 116 mL/min. For the same molecule, the clearance [40] was 94.6 mL/min, the dose excreted at 10 day [41] was 94.1% and the clearance [42] was 96.9 mL/min. The Tmax [43] was 0.93 h, the Vd [44] was 14 L and the Activity (Homo sapiens [45]) was “Non-toxic”.
